# In US10517889B2, “Modulators of SMAD7 expression” (Ionis Pharmaceuticals, Inc., priority 2017, dated 2019):
# Where “and” joins values, the source holds several entries; their conditions need not be identical. Equal entries are not always repeated. Strand notation (5' to 3'): a small letter for the sugar, then the base; units joined by * are phosphorothioate-linked, units joined directly phosphodiester-linked; [ ] holds rarer units or linkages, { } end groups; capitals alone tell only the bases. k = constrained ethyl (cEt); [5mC] = 5-methylcytosine; d = 2'-deoxy (DNA)
# Legend:
# [1] = test system: human SMAD7 mRNA; assay: Dose-dependent inhibition of human SMAD7 mRNA expression in Hep3B cells (Example 3, Study 1 and 2); assay type: cell-based; details: electroporation; for % inhibition of SMAD7 mRNA expression: approximately 16 hours; for IC50: Study 2 (740-20000 nM)
# Summary of the method: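 Hep3B cells, 20,000 per well, electroporated with antisense oligonucleotide at 0.31, 1.25, 5.00 or 20.00 μM (first series) or 0.74, 2.22, 6.67 or 20.00 μM (second series). After ~16 h, SMAD7 mRNA measured by RT-qPCR (RTS5062), normalised to RIBOGREEN total RNA. Percent inhibition vs untreated cells; IC50 derived.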
# [2] = test system: human SMAD7 mRNA; assay: Antisense inhibition of human SMAD7 mRNA expression in Hep3B cells by 3-10-3 cEt gapmers, 10,000 nM, electroporation (Example 2); assay type: cell-based; details: approximately 24 hours
# Summary of the method: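 Percent inhibition of SMAD7 mRNA, relative to untreated cells, after ~24 h exposure of electroporated Hep3B cells to 10,000 nM cEt gapmer; levels by qRT-PCR, corrected for total RNA.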
# [3] = 740 nM, Study 2, relative to untreated control cells
# [4] = Hep3B cells, electroporation with 10,000 nM antisense oligonucleotide, RTS5062, percent inhibition of SMAD7 mRNA relative to untreated control cells
# [5] = Hep3B cells, electroporation, 10,000 nM antisense oligonucleotide, RTS5062, relative to untreated control cells
# [6] = Hep3B cells, electroporation with 10,000 nM antisense oligonucleotide, SMAD7 mRNA by RT-PCR (RTS5062), relative to untreated control cells
# [7] = Hep3B cells, electroporation with 10,000 nM antisense oligonucleotide, primer probe set RTS5062, relative to untreated control cells
# [8] = SMAD7 mRNA, Hep3B cells, 10,000 nM antisense oligonucleotide, electroporation, primer probe set RTS5062, relative to untreated control cells
substance,measurement,setting,value
799544 (kT*kT*k[5mC]*dA*dA*d[5mC]*dA*dA*dG*dT*dT*d[5mC]*d[5mC]*k[5mC]*kT*kA; antisense) [compound 799544],% inhibition of SMAD7 mRNA expression,[1]; [3],19%
same,% inhibition of SMAD7 mRNA expression,"[1]; 2220 nM, Study 2",38%
same,% inhibition of SMAD7 mRNA expression,"[1]; 6670.0 nM, Study 2",54%
same,% inhibition of SMAD7 mRNA expression,"[1]; 20000.0 nM, Study 2",73%
same,IC50,[1],4 µM
same,% Inhibition,[2]; [4],72%
799321 (antisense kA*kT*k[5mC]*dT*dG*dG*dA*d[5mC]*dA*dG*dT*d[5mC]*dT*kG*k[5mC]*kT) [compound 799321],% inhibition of SMAD7 mRNA expression,[1]; [3],0%
same,% inhibition of SMAD7 mRNA expression,"[1]; 2220 nM, Study 2",5%
same,% inhibition of SMAD7 mRNA expression,"[1]; 6670.0 nM, Study 2",36%
same,% inhibition of SMAD7 mRNA expression,"[1]; 20000.0 nM, Study 2",67%
same,IC50,[1],< 0.7 µM
same,% inhibition of SMAD7 mRNA expression,[2]; [5],93%
799607 (k[5mC]*k[5mC]*kA*dT*dT*dT*dA*d[5mC]*dA*dA*dA*dA*d[5mC]*kT*k[5mC]*kT; antisense) [compound 799607],% inhibition of SMAD7 mRNA expression,[1]; [3],5%
same,% inhibition of SMAD7 mRNA expression,"[1]; 2220 nM, Study 2",12%
same,% inhibition of SMAD7 mRNA expression,"[1]; 6670.0 nM, Study 2",46%
same,% inhibition of SMAD7 mRNA expression,"[1]; 20000.0 nM, Study 2",76%
same,IC50,[1],2 µM
same,% Inhibition,[2]; [4],71%
800025 (kA*kG*kT*dA*d[5mC]*dA*dA*dG*dG*dA*d[5mC]*dT*dA*kA*kG*kG; antisense) [compound 800025],% inhibition of SMAD7 mRNA expression,[1]; [3],0%
same,% inhibition of SMAD7 mRNA expression,"[1]; 2220 nM, Study 2",42%
same,% inhibition of SMAD7 mRNA expression,"[1]; 6670.0 nM, Study 2",55%
same,% inhibition of SMAD7 mRNA expression,"[1]; 20000.0 nM, Study 2",74%
same,IC50,[1],6 µM
same,% Inhibition,[2]; [6],65%
799967 (kG*kA*k[5mC]*dG*dA*dT*dG*dA*dA*dT*d[5mC]*d[5mC]*dT*kG*kG*k[5mC]; antisense) [compound 799967],% inhibition of SMAD7 mRNA expression,[1]; [3],0%
same,% inhibition of SMAD7 mRNA expression,"[1]; 2220 nM, Study 2",0%
same,% inhibition of SMAD7 mRNA expression,"[1]; 6670.0 nM, Study 2",0%
same,% inhibition of SMAD7 mRNA expression,"[1]; 20000.0 nM, Study 2",20%
same,IC50,[1],9 µM
same,% Inhibition,[2]; [6],72%
799708 (antisense k[5mC]*kA*kA*dA*d[5mC]*dT*dT*dG*dT*dG*dG*dT*dA*kA*kA*kA) [compound 799708],% inhibition of SMAD7 mRNA expression,[1]; [3],15%
same,% inhibition of SMAD7 mRNA expression,"[1]; 2220 nM, Study 2",35%
same,% inhibition of SMAD7 mRNA expression,"[1]; 6670.0 nM, Study 2",52%
same,% inhibition of SMAD7 mRNA expression,"[1]; 20000.0 nM, Study 2",79%
same,IC50,[1],11 µM
same,% Inhibition,[2]; [4],60%
800066 (antisense kT*kG*kT*dT*dT*dT*dA*dA*dG*dT*dA*dG*d[5mC]*kA*kG*k[5mC]) [compound 800066],% inhibition of SMAD7 mRNA expression,[1]; [3],7%
same,% inhibition of SMAD7 mRNA expression,"[1]; 2220 nM, Study 2",42%
same,% inhibition of SMAD7 mRNA expression,"[1]; 6670.0 nM, Study 2",62%
same,% inhibition of SMAD7 mRNA expression,"[1]; 20000.0 nM, Study 2",82%
same,IC50,[1],9 µM
same,% Inhibition,[2]; [6],63%
800109 (antisense kA*k[5mC]*kA*dG*d[5mC]*d[5mC]*dA*d[5mC]*dA*dA*dG*dT*d[5mC]*kA*k[5mC]*kA) [compound 800109],% inhibition of SMAD7 mRNA expression,"[1]; 20000.0 nM, Study 2",71% and 67% and 93% and 97%
same,IC50,[1],1 µM
same,% Inhibition,[2]; [6],86%
same,% inhibition of SMAD7 mRNA expression,[2]; [7],75%
same,% Inhibition,[2]; [8],88%
830207 (kA*kG*kG*dT*dG*dA*d[5mC]*dT*d[5mC]*dA*dT*d[5mC]*dA*kG*kG*k[5mC]; antisense) [compound 830207],% inhibition of SMAD7 mRNA expression,[1]; [3],49%
same,% inhibition of SMAD7 mRNA expression,"[1]; 2220 nM, Study 2",74%
same,% inhibition of SMAD7 mRNA expression,"[1]; 6670.0 nM, Study 2",85%
same,% inhibition of SMAD7 mRNA expression,"[1]; 20000.0 nM, Study 2",93%
same,IC50,[1],1 µM
same,% Inhibition,[2]; [6],80%
830067 (kG*kA*kA*dA*dT*dG*dG*dT*dG*d[5mC]*dT*d[5mC]*dT*kG*k[5mC]*k[5mC]; antisense) [compound 830067],% inhibition of SMAD7 mRNA expression,[1]; [3],23%
same,% inhibition of SMAD7 mRNA expression,"[1]; 2220 nM, Study 2",59%
same,% inhibition of SMAD7 mRNA expression,"[1]; 6670.0 nM, Study 2",80%
same,% inhibition of SMAD7 mRNA expression,"[1]; 20000.0 nM, Study 2",88%
same,IC50,[1],10 µM
same,% Inhibition,[2]; [6],63%
799624 (kT*kG*kA*dA*dA*dG*dT*dA*d[5mC]*dA*dA*dT*d[5mC]*kT*k[5mC]*k[5mC]; antisense) [compound 799624],% inhibition of SMAD7 mRNA expression,[1]; [3],2%
same,% inhibition of SMAD7 mRNA expression,"[1]; 2220 nM, Study 2",50%
same,% inhibition of SMAD7 mRNA expression,"[1]; 6670.0 nM, Study 2",77%
same,% inhibition of SMAD7 mRNA expression,"[1]; 20000.0 nM, Study 2",89%
same,IC50,[1],6 µM
same,% Inhibition,[2]; [4],58%
830095 (kT*kG*kA*dG*dT*dA*dA*dA*d[5mC]*dA*dA*dT*dA*k[5mC]*k[5mC]*k[5mC]; antisense) [compound 830095],% inhibition of SMAD7 mRNA expression,[1]; [3],3%
same,% inhibition of SMAD7 mRNA expression,"[1]; 2220 nM, Study 2",37%
same,% inhibition of SMAD7 mRNA expression,"[1]; 6670.0 nM, Study 2",42%
same,% inhibition of SMAD7 mRNA expression,"[1]; 20000.0 nM, Study 2",60%
same,IC50,[1],2 µM
same,% Inhibition,[2]; [6],73%
799540 (kA*kG*k[5mC]*dT*dG*dA*dA*dG*d[5mC]*d[5mC]*d[5mC]*d[5mC]*d[5mC]*k[5mC]*kA*kA; antisense) [compound 799540],% inhibition of SMAD7 mRNA expression,[1]; [3],41%
same,% inhibition of SMAD7 mRNA expression,"[1]; 2220 nM, Study 2",60%
same,% inhibition of SMAD7 mRNA expression,"[1]; 6670.0 nM, Study 2",63%
same,% inhibition of SMAD7 mRNA expression,"[1]; 20000.0 nM, Study 2",73%
same,IC50,[1],5 µM
same,% inhibition of SMAD7 mRNA expression,[2]; [5],76%
799631 (k[5mC]*k[5mC]*kA*dA*dA*dT*d[5mC]*dA*d[5mC]*dA*dA*dA*dG*k[5mC]*kA*kG; antisense) [compound 799631],% inhibition of SMAD7 mRNA expression,[1]; [3],0%
same,% inhibition of SMAD7 mRNA expression,"[1]; 2220 nM, Study 2",25%
same,% inhibition of SMAD7 mRNA expression,"[1]; 6670.0 nM, Study 2",49%
same,% inhibition of SMAD7 mRNA expression,"[1]; 20000.0 nM, Study 2",88%
same,IC50,[1],3 µM
same,% Inhibition,[2]; [4],82%
799709 (antisense kT*k[5mC]*kA*dA*dA*d[5mC]*dT*dT*dG*dT*dG*dG*dT*kA*kA*kA) [compound 799709],% inhibition of SMAD7 mRNA expression,[1]; [3],0%
same,% inhibition of SMAD7 mRNA expression,"[1]; 2220 nM, Study 2",27%
same,% inhibition of SMAD7 mRNA expression,"[1]; 6670.0 nM, Study 2",36%
same,% inhibition of SMAD7 mRNA expression,"[1]; 20000.0 nM, Study 2",62%
same,IC50,[1],7 µM
same,% Inhibition,[2]; [4],60%
830051 (kT*kA*kG*dT*dT*dT*d[5mC]*d[5mC]*dG*dA*dT*dT*dG*kG*k[5mC]*kA; antisense) [compound 830051],% inhibition of SMAD7 mRNA expression,[1]; [3],0%
same,% inhibition of SMAD7 mRNA expression,"[1]; 2220 nM, Study 2",18%
same,% inhibition of SMAD7 mRNA expression,"[1]; 6670.0 nM, Study 2",42%
same,% inhibition of SMAD7 mRNA expression,"[1]; 20000.0 nM, Study 2",67%
same,IC50,[1],2 µM
same,% Inhibition,[2]; [6],84%
799787 (k[5mC]*k[5mC]*kA*dA*dA*dG*d[5mC]*dA*dG*dA*dA*dG*dT*kA*kG*kA; antisense) [compound 799787],% inhibition of SMAD7 mRNA expression,[1]; [3],0%
same,% inhibition of SMAD7 mRNA expression,"[1]; 2220 nM, Study 2",9%
same,% inhibition of SMAD7 mRNA expression,"[1]; 6670.0 nM, Study 2",35%
same,% inhibition of SMAD7 mRNA expression,"[1]; 20000.0 nM, Study 2",41%
same,IC50,[1],18 µM
same,% Inhibition,[2]; [4],58%
790666 (kT*kA*kA*dT*dT*dT*dA*dT*dG*dA*d[5mC]*dA*dA*k[5mC]*kG*k[5mC]; antisense) [compound 790666],% inhibition of SMAD7 mRNA expression,[1]; [3],13%
same,% inhibition of SMAD7 mRNA expression,"[1]; 2220 nM, Study 2",49%
same,% inhibition of SMAD7 mRNA expression,"[1]; 6670.0 nM, Study 2",54%
same,% inhibition of SMAD7 mRNA expression,"[1]; 20000.0 nM, Study 2",74%
same,IC50,[1],4 µM
same,% Inhibition,[2]; [8],72%
798687 (antisense kG*kG*k[5mC]*dG*dA*dG*dG*dA*dG*dG*d[5mC]*dG*dA*kG*kG*kA) [compound 798687],% inhibition of SMAD7 mRNA expression,[1]; [3],27%
same,% inhibition of SMAD7 mRNA expression,"[1]; 2220 nM, Study 2",42%
same,% inhibition of SMAD7 mRNA expression,"[1]; 6670.0 nM, Study 2",60%
same,% inhibition of SMAD7 mRNA expression,"[1]; 20000.0 nM, Study 2",61%
same,IC50,[1],7 µM
same,% inhibition of SMAD7 mRNA expression,[2]; [7],64%
799412 (antisense kT*kT*k[5mC]*dT*dT*dA*d[5mC]*dA*d[5mC]*dA*dG*d[5mC]*dA*kG*k[5mC]*kG) [compound 799412],% inhibition of SMAD7 mRNA expression,[1]; [3],35%
same,% inhibition of SMAD7 mRNA expression,"[1]; 2220 nM, Study 2",51%
same,% inhibition of SMAD7 mRNA expression,"[1]; 6670.0 nM, Study 2",67%
same,% inhibition of SMAD7 mRNA expression,"[1]; 20000.0 nM, Study 2",65%
same,IC50,[1],4 µM
same,% Inhibition,[2]; [6],60%
